The values that follow come from ChEMBL document CHEMBL1828590 (J Med Chem, 2011).

Targets include Histone deacetylase 3 (Homo sapiens, UniProt O15379); Histone deacetylase 9 (Homo sapiens, UniProt Q9UKV0); Histone deacetylase 5 (Homo sapiens, UniProt Q9UQL6); Histone deacetylase 2 (Homo sapiens, UniProt Q92769); Histone deacetylase 4 (Homo sapiens, UniProt P56524).
Data set [1] has as its target T1, Protein deacetylase HDAC6 (Homo sapiens, UniProt Q9UBN7).
T1 sequence (Q9UBN7 whole entry): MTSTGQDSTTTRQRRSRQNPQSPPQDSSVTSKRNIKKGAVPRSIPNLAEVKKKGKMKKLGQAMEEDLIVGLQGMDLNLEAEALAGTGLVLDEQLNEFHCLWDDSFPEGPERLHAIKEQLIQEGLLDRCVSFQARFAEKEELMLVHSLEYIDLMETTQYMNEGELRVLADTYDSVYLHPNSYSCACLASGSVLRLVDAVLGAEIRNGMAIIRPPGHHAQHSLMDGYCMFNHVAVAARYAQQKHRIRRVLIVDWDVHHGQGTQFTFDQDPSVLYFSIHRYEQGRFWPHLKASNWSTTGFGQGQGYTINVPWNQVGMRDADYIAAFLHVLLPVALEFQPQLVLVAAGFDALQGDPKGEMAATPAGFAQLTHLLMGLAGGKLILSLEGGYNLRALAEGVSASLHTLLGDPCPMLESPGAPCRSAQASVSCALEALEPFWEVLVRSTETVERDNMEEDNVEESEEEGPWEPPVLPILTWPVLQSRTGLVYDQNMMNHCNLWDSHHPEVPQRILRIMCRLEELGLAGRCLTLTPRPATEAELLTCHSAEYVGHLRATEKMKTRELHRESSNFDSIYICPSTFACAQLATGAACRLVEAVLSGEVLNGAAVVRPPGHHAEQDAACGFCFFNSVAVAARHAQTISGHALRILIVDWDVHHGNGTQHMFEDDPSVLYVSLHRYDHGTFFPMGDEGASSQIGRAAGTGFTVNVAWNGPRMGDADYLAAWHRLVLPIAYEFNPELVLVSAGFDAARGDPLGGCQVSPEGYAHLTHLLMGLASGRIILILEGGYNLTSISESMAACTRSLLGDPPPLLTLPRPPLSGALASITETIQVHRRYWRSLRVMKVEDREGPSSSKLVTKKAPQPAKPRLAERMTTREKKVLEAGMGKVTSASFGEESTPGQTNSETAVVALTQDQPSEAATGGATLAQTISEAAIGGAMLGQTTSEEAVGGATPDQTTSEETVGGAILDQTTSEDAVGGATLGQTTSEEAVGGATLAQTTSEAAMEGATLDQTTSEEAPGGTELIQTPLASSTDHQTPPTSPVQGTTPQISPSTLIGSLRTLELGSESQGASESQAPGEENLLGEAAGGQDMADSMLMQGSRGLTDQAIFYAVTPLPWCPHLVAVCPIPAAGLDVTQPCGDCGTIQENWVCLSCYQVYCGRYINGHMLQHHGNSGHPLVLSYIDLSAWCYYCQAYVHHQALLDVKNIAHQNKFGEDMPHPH
Description: Competitive inhibition of HDAC6 using KI-104 as substrate by fluorescence assay

Another data set deals with HCT-116. Kind of data set: Antiproliferative activity against human HCT116 cells after 96 hrs by celltiter 96 assay. It is filed as functional, cell-based. The note with it: HCT-116, 96 h.
Another data set relates to COLO 205. The experiment in a line: Antiproliferative activity against human COLO205 cells after 96 hrs by celltiter 96 assay. It is filed as functional, cell-based. Particulars: COLO 205, 96 h.
The target of data set [2] is T2, Histone deacetylase 1 (Homo sapiens, UniProt Q13547).
T2 sequence (Q13547 whole entry): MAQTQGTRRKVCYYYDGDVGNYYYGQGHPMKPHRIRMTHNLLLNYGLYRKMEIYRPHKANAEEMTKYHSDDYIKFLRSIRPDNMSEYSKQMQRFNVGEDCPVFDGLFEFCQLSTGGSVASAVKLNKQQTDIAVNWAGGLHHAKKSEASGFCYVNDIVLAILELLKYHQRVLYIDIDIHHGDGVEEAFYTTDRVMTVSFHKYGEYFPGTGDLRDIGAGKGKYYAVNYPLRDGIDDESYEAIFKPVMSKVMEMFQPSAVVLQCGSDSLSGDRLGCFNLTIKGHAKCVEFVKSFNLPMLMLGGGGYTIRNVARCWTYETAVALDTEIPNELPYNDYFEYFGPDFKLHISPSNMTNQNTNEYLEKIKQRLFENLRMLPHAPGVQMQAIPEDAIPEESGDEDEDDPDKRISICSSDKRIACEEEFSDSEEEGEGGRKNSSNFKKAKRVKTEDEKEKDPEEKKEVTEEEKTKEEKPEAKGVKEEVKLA
Description: Inhibition of full length recombinant HDAC1 using Fluor de Lys as substrate by fluorescence assay
Data set [3] in a line: Oral bioavailability in Wistar rat at 10 mg/kg. It is filed as ADME, organism-based. Particulars: in vivo.
The target of the next data set is T3, Histone deacetylase 8 (Homo sapiens, UniProt Q9BY41).
T3 sequence (Q9BY41 whole entry): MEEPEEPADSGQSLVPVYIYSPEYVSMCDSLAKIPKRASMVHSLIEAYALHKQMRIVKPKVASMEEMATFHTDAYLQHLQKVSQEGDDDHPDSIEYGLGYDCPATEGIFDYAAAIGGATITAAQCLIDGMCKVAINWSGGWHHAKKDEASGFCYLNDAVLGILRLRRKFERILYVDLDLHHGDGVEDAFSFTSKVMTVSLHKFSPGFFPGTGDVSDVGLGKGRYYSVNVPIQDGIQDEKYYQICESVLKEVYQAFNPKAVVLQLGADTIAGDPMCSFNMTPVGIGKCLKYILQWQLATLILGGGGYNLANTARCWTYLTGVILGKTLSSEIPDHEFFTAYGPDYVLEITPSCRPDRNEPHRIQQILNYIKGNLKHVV

The target of a further data set is T4, Histone deacetylase 11 (Homo sapiens, UniProt Q96DB2).
T4 sequence (Q96DB2 whole entry): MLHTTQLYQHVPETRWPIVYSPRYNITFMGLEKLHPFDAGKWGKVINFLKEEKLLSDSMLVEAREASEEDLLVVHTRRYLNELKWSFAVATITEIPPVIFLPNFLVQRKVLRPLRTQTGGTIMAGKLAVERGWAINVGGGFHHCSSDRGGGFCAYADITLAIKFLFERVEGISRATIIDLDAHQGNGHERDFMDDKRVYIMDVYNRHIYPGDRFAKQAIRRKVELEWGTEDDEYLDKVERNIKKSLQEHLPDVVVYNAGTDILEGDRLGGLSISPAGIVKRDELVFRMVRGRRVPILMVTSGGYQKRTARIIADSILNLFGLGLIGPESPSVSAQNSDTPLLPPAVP

The target in data set [4] is T5, Polyamine deacetylase HDAC10 (Homo sapiens, UniProt Q969S8).
T5 sequence (Q969S8 whole entry): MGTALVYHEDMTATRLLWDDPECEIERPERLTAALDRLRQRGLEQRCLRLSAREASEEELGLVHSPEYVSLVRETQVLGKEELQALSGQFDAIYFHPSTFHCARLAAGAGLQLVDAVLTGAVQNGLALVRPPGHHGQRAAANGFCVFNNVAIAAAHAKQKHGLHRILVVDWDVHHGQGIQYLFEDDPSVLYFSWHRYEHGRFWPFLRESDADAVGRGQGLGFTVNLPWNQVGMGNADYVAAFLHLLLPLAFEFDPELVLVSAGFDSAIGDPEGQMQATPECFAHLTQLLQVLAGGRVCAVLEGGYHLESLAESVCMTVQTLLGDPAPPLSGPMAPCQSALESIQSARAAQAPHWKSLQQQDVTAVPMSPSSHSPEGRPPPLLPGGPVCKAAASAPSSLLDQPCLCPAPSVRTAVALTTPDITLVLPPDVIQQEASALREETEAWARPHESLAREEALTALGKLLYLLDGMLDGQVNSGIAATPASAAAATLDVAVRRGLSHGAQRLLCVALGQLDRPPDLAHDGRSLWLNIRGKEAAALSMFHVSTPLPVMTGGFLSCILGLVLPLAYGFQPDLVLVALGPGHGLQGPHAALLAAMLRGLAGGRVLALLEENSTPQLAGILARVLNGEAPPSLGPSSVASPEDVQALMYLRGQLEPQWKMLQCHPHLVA
Description: Competitive inhibition of HDAC10 using KI-104 as substrate by fluorescence assay

The target of data set [5] is T2, Histone deacetylase 1. This is another data set of the same source.
Description: Competitive inhibition of HDAC1 using KI-104 as substrate by fluorescence assay
Data set [6] is described as follows: Toxicity in po dosed athymic nu/nu Harlan mouse with xenografted human HCT116 cells assessed as maximum tolerated administered qd for 21 days. Format: organism-based, HCT-116. Particulars: in vivo. For orientation: In xenograft studies the graft and the host belong to different species.
The next data set concerns A2780. Kind of data set: Antiproliferative activity against human A2780 cells after 96 hrs by celltiter 96 assay. It is filed as functional, cell-based. Particulars: A2780, 96 h.
Another data set deals with PC-3. Kind of data set: Antiproliferative activity against human PC3 cells after 96 hrs by celltiter 96 assay. It is filed as functional, cell-based. Particulars: PC-3, 96 h.
A short description of data set [7]: Half life in mouse liver microsomes. Format: ADME, Microsome. Particulars: liver microsomes. (In general: Microsomes from liver hold many membrane-bound enzymes, among them those of drug oxidation.)
A short description of data set [8]: 1-Octanol-sodium phosphate buffer distribution coefficient, log D of the compound at pH 7.4. It is filed as physicochemical.
A short description of data set [9]: Kinetic solubility of the compound at pH 7 with […] DMSO. Particulars: buffer, read-out: Kinetic_solubility. Format: physicochemical.
A short description of data set [10]: Half life in human liver microsomes. It is filed as ADME, Microsome.
A short description of data set [11]: Half life in dog liver microsomes. Format: ADME, Canis lupus familiaris, Microsome.
Data set [12] in a line: Half life in rat liver microsomes. It is filed as ADME, Microsome.
The nature of data set [13]: Apparent permeability from basolateral to apical side of human Caco2 cells. It is filed as ADME, cell-based. The note with it: Caco-2. For orientation: Passage across Caco-2 layers is used to estimate intestinal permeability.
Data set [14] in a line: Apparent permeability from apical to basolateral side of human Caco2 cells. Format: ADME, cell-based. Particulars: Caco-2.

SMILES strings stand for the structures. Where only a bound is given, the exact number is not on record here.

Sequence of Histone deacetylase 3 (O15379 whole entry): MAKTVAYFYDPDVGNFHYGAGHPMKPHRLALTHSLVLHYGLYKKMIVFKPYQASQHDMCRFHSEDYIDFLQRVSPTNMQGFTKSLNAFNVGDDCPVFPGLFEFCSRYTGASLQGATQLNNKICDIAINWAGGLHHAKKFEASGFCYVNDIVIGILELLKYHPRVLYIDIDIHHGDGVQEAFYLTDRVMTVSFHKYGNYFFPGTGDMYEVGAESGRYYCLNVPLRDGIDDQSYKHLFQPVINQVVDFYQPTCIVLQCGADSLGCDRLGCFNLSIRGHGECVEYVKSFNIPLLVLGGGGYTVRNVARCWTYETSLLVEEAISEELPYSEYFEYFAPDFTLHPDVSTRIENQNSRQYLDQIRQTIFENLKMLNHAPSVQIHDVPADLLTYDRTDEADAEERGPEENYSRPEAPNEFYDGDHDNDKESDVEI
Sequence of Histone deacetylase 5 (Q9UQL6 whole entry): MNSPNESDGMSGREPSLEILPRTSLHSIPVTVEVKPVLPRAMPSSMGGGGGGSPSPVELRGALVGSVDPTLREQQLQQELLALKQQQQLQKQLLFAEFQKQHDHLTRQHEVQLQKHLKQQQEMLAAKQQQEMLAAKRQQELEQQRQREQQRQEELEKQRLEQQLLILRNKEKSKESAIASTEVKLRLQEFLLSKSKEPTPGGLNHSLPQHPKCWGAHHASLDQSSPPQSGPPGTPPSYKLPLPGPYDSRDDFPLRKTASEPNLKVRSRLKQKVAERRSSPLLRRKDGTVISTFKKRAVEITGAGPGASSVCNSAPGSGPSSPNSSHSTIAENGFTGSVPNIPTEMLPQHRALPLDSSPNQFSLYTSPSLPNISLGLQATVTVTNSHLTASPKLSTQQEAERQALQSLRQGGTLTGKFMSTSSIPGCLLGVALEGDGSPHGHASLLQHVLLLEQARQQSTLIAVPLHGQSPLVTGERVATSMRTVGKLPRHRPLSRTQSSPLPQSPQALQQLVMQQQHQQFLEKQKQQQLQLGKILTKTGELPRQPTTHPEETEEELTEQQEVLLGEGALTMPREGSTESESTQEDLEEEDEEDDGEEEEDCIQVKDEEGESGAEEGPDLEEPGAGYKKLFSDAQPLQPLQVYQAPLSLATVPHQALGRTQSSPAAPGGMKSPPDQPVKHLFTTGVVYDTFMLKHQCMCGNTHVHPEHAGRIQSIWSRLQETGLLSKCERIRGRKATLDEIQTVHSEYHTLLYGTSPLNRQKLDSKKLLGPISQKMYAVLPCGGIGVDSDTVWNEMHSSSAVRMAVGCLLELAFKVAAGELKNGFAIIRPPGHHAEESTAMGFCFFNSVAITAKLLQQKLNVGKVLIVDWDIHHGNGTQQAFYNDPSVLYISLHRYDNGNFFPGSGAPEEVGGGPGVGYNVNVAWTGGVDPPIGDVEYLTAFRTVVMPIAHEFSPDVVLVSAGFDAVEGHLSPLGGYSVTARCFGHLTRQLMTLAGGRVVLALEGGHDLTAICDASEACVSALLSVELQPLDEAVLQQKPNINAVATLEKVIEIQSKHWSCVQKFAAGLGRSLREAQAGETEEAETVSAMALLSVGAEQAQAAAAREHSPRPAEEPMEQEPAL
Sequence of Histone deacetylase 4 (P56524 whole entry): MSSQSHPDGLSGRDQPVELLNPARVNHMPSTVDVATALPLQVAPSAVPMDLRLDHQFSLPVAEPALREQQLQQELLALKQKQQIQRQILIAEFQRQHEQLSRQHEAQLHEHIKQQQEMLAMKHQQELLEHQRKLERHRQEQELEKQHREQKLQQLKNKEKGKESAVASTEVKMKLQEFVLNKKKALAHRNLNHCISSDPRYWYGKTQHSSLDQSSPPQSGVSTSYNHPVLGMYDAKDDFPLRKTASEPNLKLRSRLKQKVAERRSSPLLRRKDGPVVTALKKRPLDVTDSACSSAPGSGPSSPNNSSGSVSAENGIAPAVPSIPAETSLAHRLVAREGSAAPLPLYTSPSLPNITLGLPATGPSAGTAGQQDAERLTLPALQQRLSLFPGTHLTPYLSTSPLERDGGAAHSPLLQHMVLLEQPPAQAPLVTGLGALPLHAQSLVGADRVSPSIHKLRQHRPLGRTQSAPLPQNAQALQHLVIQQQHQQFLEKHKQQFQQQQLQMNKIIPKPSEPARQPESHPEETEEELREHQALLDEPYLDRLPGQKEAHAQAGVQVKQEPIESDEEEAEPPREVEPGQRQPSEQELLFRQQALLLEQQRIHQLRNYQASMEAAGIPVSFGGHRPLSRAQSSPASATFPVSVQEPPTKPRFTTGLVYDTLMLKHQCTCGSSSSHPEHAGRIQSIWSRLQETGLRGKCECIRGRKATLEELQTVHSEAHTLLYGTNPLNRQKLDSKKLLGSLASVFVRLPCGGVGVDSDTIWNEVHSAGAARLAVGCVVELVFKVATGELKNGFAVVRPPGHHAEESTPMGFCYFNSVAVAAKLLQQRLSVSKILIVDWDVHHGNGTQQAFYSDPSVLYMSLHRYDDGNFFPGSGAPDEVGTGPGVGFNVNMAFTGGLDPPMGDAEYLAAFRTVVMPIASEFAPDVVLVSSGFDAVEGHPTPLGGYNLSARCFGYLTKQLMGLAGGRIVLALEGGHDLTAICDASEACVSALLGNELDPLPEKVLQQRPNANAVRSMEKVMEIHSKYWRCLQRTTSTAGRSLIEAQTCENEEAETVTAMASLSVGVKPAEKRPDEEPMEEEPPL
Sequence of Histone deacetylase 9 (Q9UKV0 whole entry): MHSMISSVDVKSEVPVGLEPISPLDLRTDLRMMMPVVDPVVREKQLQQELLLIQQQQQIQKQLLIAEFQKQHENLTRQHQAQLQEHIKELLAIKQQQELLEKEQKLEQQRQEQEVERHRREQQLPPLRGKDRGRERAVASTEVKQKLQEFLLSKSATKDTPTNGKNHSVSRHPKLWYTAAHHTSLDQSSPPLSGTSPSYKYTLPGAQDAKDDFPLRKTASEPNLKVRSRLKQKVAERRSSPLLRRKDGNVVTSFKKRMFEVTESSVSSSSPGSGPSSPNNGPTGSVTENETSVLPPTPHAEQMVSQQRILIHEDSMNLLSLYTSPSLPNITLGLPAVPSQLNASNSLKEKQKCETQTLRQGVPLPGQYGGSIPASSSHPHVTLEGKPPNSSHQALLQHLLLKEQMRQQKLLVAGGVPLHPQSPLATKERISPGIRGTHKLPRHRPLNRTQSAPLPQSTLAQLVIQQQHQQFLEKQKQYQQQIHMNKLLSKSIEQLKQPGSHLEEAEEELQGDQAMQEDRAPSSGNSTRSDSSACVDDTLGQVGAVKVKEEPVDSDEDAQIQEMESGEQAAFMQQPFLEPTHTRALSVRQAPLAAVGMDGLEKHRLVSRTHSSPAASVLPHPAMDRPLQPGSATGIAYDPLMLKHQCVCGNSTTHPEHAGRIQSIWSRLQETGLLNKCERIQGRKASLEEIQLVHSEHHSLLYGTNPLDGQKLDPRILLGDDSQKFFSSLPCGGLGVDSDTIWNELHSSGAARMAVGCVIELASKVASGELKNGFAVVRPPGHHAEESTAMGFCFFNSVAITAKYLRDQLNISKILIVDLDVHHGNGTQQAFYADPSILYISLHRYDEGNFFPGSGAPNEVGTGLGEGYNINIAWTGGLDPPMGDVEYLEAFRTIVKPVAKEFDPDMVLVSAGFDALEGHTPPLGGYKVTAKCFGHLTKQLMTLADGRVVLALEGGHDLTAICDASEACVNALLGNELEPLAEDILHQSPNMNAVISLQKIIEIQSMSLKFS
Sequence of Histone deacetylase 2 (Q92769 whole entry): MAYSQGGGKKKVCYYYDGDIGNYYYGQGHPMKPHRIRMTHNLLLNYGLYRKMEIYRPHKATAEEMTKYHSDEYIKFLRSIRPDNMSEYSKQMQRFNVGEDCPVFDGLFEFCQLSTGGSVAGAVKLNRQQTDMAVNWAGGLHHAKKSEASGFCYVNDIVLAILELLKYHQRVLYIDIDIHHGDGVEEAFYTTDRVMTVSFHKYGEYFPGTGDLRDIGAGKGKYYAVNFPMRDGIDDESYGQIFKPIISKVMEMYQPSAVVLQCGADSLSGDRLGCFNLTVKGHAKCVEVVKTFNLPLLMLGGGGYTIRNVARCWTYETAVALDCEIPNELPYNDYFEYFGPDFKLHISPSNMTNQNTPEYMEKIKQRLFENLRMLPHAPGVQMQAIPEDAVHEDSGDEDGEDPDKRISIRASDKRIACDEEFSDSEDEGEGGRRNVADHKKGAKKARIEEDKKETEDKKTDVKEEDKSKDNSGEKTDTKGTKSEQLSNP
Description for Histone deacetylase 11: Competitive inhibition of HDAC11 using KI-104 as substrate by fluorescence assay
Description for Histone deacetylase 2: Competitive inhibition of HDAC2 using KI-104 as substrate by fluorescence assay
Description for Histone deacetylase 3: Competitive inhibition of HDAC3 using KI-104 as substrate by fluorescence assay
Description for Histone deacetylase 4: Competitive inhibition of HDAC4 using KI-104 as substrate by fluorescence assay
Description for Histone deacetylase 5: Competitive inhibition of HDAC5 using KI-104 as substrate by fluorescence assay
Description for Histone deacetylase 8: Competitive inhibition of HDAC8 using KI-104 as substrate by fluorescence assay
Description for Histone deacetylase 9: Competitive inhibition of HDAC9 using KI-104 as substrate by fluorescence assay

For the compound `CCCCCCc1nc2cc(/C=C/C(=O)NO)ccc2n1CCNCC`, the Ki (in general, a dissociation constant, usually derived from enzyme kinetics or from competition with a known ligand) on Histone deacetylase 3 came out at 13 nM; in [1], 282 nM; at Histone deacetylase 9 it was 14 nM; on Histone deacetylase 5 it was 6.8 nM; on Histone deacetylase 8, 54 nM; on Histone deacetylase 11, 13 nM. The Ki was found to be 28 nM in data set [4], 18 nM at Histone deacetylase 2, 11 nM on Histone deacetylase 1 [5] and 6.2 nM at Histone deacetylase 4. For the same compound, the IC50 (as a rule, the concentration that inhibits the measured activity by half) was 230 nM with HCT-116; 190 nM in the data set with COLO 205; 20 nM against Histone deacetylase 1 [2]; 240 nM in the data set with A2780; 210 nM in the data set on PC-3. In data set [3], the bioavailability – broadly, dose-corrected exposure relative to a reference, in per cent – came to 1.4%. In [6], the MTD (as a rule, the highest dose tested that stayed within the study's limit of toxicity) at 504 h is 200 mg/kg.
For the compound `O=C(/C=C/c1ccc2c(c1)nc(CCc1ccccc1)n2CCN1CCCC1)NO`, the Ki on Histone deacetylase 3 was 12 nM; in [1], 20 nM; at Histone deacetylase 8, 95 nM; at Histone deacetylase 4, 8.5 nM. For the same compound, the half-life (usually how long it takes for the measured level to halve) in data set [7] is 5 min; in data set [10] it was at least 30 min; in [11], 18 min; in data set [12] it was 4.3 min. The figures for the IC50 in the data set with HCT-116 and in the data set on COLO 205 were 190 nM and 130 nM, respectively. Besides, the log distribution coefficient (logD) (as a rule, lipophilicity at a set pH, counting ionised and neutral species) in data set [8] (octanol/water) came to 2.1. In addition, the solubility kinetic in data set [9] is above 200 µM. The Papp B→A (in general, the apparent permeability from the basolateral to the apical side of a cell layer) in data set [13] came to 27.7 ×10⁻⁶ cm/s. Besides, the Papp A→B (commonly how fast a substance crosses the layer from the apical side) in data set [14] came to 3.01 ×10⁻⁶ cm/s.
On to `CC/C=C\CCc1nc2cc(/C=C/C(=O)NO)ccc2n1CCNCC`, for which the Ki at Histone deacetylase 3 is 16 nM; in data set [1] it was 4 nM; at Histone deacetylase 9, 5.7 nM; on Histone deacetylase 5 it was 3.1 nM; at Histone deacetylase 8, 55 nM; at Histone deacetylase 11, 8.8 nM. Also, the Ki came out at 18 nM in data set [4], 8.6 nM on Histone deacetylase 2, 7.7 nM on Histone deacetylase 1 [5] and 2.4 nM on Histone deacetylase 4. Also, the IC50 in the data set with HCT-116 amounted to 660 nM; in the data set on COLO 205 it was 310 nM; against Histone deacetylase 1 [2], 21 nM; in the data set with A2780, 200 nM; with PC-3, 160 nM.
Turning to `CCCCc1nc2cc(/C=C/C(=O)NO)ccc2n1CCNC(C)C`, the Ki at Histone deacetylase 3 stood at 27 nM; in [1] it was 225 nM; at Histone deacetylase 9 it was 30 nM; on Histone deacetylase 5, 11 nM; at Histone deacetylase 8 it was 78 nM; at Histone deacetylase 11 it was 18 nM. The inhibitory constant (Ki) in data set [4] amounted to 34 nM; at Histone deacetylase 2, 33 nM; on Histone deacetylase 1 [5], 26 nM; at Histone deacetylase 4, 11 nM. For the same compound, the IC50 in the data set with HCT-116 is 340 nM; in the data set on COLO 205 it was 470 nM; on Histone deacetylase 1 [2] it was 42 nM; in the data set on A2780 it was 380 nM; in the data set on PC-3 it was 230 nM. This compound also registered a bioavailability in data set [3] of 9%. The MTD at 504 h in [6] amounted to 200 mg/kg.
Take `CCCCCc1nc2cc(/C=C/C(=O)NO)ccc2n1CCNC(C)C`: the Ki at Histone deacetylase 3 was determined as 10 nM; in data set [1] it was 227 nM; on Histone deacetylase 9 it was 4.4 nM; at Histone deacetylase 5, 5.6 nM; at Histone deacetylase 8, 94 nM; on Histone deacetylase 11, 4.2 nM. Moreover, the Ki in [4] was 19 nM; on Histone deacetylase 2, 14 nM; on Histone deacetylase 1 [5], 10 nM; at Histone deacetylase 4, 3.6 nM. Moreover, the IC50 turned out to be 260 nM in the data set on HCT-116; 280 nM in the data set on COLO 205; 30 nM at Histone deacetylase 1 [2]; 230 nM with A2780; 120 nM in the data set on PC-3.
For the compound `Cl.O=C(/C=C/c1ccc2c(c1)nc(CCc1ccccc1)n2CCN1CCCC1)NO`, the half-life was determined as 5 min in data set [7], 60 min in data set [10], 18 min in [11] and 4.3 min in [12]. For the same compound, in data set [8] (1-octanol/sodium phosphate buffer, read-out: logD), the logD turned out to be 2.1. Moreover, in [9], the solubility kinetic was above 200 µM. Moreover, the Papp B→A in [13] was 27.7 ×10⁻⁶ cm/s. In addition, the Papp A→B in data set [14] was 3.01 ×10⁻⁶ cm/s.
